From the kinase profiling compilation of Christmann-Franck et al. (2016)

What was measured:
Assay in all cases: KINOMEscan competition binding
Settings in all cases: compound 10.0 µM
ALK (human) = ALK (human) (UniProt Q9UM73)
BMPR1A (human) = BMPR1A (human) (UniProt P36894)
CAMK4 (human) = CAMK4 (human) (UniProt Q16566)
CDC42BPA (human) = CDC42BPA (human) (UniProt Q5VT25)
CDC42BPG (human) = CDC42BPG (human) (UniProt Q6DT37)
CDK11B (human) = CDK11B (human) (UniProt P21127)
CDK14 (human) = CDK14 (human) (UniProt O94921)
CDK15 (human) = CDK15 (human) (UniProt Q96Q40)
CDK19 (human) = CDK19 (human) (UniProt Q9BWU1)
CIT (human) = CIT (human) (UniProt O14578)
CLK2 (human) = CLK2 (human) (UniProt P49760)
CSNK1G1 (human) = CSNK1G1 (human) (UniProt Q9HCP0)
CSNK1G2 (human) = CSNK1G2 (human) (UniProt P78368)
EGFR (human) = EGFR (human) (UniProt P00533)
EPHA1 (human) = EPHA1 (human) (UniProt P21709)
EPHA7 (human) = EPHA7 (human) (UniProt Q15375)
EPHB1 (human) = EPHB1 (human) (UniProt P54762)
EPHB4 (human) = EPHB4 (human) (UniProt P54760)
FGFR2 (human) = FGFR2 (human) (UniProt P21802)
[1] = system: FGFR3 (human), P22607 [G697C]
FRK (human) = FRK (human) (UniProt P42685)
HIPK4 (human) = HIPK4 (human) (UniProt Q8NE63)
KDR (human) = KDR (human) (UniProt P35968)
[2] = system: LRRK2 (human), Q5S007 [G2019S]
LYN (human) = LYN (human) (UniProt P07948)
MAK (human) = MAK (human) (UniProt P20794)
MAP2K7 (human) = MAP2K7 (human) (UniProt O14733)
MAP3K15 (human) = MAP3K15 (human) (UniProt Q6ZN16)
MAP4K2 (human) = MAP4K2 (human) (UniProt Q12851)
MAPK7 (human) = MAPK7 (human) (UniProt Q13164)
MARK3 (human) = MARK3 (human) (UniProt P27448)
NEK11 (human) = NEK11 (human) (UniProt Q8NG66)
NUAK1 (human) = NUAK1 (human) (UniProt O60285)
OXSR1 (human) = OXSR1 (human) (UniProt O95747)
PKMYT1 (human) = PKMYT1 (human) (UniProt Q99640)
PRKX (human) = PRKX (human) (UniProt P51817)
STK33 (human) = STK33 (human) (UniProt Q9BYT3)
STK35 (human) = STK35 (human) (UniProt Q8TDR2)
TAOK1 (human) = TAOK1 (human) (UniProt Q7L7X3)
TEK (human) = TEK (human) (UniProt Q02763)
ULK1 (human) = ULK1 (human) (UniProt O75385)

Sequence of EPHA1 (human) (P21709 whole entry, looked up): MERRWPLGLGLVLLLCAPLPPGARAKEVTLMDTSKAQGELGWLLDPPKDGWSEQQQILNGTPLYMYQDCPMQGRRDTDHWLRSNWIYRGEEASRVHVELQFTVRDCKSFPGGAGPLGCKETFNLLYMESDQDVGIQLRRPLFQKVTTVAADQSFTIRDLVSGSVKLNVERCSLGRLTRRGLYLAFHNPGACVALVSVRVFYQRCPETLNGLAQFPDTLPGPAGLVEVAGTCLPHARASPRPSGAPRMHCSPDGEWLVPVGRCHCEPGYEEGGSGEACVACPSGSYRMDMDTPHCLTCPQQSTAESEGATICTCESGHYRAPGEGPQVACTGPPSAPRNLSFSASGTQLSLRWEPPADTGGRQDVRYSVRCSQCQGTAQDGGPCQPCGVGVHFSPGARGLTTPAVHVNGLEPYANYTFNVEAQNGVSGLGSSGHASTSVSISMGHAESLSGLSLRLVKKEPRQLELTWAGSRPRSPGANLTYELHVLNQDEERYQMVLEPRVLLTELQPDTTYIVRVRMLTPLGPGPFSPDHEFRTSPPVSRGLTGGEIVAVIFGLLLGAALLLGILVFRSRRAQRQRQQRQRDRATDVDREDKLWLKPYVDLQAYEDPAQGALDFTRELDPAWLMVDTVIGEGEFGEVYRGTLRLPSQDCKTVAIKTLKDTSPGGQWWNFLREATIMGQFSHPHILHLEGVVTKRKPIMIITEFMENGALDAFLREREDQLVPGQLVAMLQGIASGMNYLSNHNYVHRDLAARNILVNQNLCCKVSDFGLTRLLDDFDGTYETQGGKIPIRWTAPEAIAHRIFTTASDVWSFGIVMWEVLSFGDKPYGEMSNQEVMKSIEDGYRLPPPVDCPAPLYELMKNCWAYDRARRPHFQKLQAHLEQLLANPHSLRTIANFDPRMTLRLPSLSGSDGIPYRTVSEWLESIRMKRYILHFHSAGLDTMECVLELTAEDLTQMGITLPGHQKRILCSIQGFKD
Sequence of CDK15 (human) (Q96Q40 whole entry, looked up): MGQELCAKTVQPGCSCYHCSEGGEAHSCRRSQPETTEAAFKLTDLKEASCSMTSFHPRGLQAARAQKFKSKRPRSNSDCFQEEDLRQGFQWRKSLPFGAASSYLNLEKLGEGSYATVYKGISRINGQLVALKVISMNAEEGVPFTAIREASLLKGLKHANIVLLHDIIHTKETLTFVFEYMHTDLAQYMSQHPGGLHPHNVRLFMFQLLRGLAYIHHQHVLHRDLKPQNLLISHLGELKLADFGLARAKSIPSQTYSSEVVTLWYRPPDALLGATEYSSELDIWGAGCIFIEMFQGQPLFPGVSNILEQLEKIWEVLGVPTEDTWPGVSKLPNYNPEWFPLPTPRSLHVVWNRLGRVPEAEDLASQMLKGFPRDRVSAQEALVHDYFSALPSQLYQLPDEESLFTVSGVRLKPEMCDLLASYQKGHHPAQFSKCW
Sequence of EGFR (human) (P00533 whole entry, looked up): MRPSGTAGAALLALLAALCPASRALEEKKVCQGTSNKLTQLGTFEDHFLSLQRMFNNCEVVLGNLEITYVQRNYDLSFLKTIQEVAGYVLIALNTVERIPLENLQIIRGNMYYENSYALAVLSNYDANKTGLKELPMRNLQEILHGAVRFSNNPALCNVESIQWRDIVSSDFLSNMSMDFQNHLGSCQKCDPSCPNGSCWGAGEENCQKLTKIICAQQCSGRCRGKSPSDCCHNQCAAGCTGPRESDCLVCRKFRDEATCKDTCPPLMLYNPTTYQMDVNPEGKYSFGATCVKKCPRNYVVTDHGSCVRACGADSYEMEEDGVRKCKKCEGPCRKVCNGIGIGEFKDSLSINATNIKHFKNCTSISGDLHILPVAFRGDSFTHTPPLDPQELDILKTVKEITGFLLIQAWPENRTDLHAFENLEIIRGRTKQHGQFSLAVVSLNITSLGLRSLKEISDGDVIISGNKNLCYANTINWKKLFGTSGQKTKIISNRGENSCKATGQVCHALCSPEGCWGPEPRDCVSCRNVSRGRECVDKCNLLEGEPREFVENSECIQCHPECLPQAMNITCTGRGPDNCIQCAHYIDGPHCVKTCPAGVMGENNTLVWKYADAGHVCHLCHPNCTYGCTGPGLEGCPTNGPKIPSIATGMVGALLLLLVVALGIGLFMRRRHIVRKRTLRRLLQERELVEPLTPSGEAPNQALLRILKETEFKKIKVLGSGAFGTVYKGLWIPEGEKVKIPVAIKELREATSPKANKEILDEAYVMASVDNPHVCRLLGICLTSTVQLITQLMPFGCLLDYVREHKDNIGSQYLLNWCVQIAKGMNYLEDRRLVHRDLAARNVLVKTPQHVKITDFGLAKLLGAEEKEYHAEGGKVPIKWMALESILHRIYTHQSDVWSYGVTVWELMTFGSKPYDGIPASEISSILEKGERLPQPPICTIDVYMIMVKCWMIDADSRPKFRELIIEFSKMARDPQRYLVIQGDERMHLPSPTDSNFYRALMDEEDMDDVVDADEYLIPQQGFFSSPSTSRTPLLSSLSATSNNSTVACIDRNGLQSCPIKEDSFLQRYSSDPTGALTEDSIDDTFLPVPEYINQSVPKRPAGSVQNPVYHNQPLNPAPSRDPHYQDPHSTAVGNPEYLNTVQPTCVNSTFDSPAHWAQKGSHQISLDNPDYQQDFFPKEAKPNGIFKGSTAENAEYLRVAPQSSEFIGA
Sequence of MAP4K2 (human) (Q12851 whole entry, looked up): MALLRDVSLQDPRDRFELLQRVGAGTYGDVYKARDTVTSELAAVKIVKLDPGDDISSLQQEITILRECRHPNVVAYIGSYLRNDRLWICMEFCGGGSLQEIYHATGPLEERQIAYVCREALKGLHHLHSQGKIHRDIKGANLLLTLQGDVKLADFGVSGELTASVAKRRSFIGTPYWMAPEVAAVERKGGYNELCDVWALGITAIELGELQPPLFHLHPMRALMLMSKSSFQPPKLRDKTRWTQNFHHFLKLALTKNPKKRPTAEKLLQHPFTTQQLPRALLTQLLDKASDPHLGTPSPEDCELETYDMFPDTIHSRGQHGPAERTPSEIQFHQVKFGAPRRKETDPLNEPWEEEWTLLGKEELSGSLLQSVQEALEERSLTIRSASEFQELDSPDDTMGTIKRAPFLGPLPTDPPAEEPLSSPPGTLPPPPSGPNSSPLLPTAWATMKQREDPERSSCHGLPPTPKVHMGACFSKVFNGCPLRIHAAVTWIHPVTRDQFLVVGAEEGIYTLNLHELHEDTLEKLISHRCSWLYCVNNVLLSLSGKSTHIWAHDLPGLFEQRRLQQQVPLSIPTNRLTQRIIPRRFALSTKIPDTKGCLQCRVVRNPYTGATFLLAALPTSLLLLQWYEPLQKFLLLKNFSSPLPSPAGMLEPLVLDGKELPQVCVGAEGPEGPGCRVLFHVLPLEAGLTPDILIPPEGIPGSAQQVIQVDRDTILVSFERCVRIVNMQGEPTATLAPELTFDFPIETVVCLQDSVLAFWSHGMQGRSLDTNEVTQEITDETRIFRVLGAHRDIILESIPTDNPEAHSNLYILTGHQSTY
Sequence of EPHA7 (human) (Q15375 whole entry, looked up): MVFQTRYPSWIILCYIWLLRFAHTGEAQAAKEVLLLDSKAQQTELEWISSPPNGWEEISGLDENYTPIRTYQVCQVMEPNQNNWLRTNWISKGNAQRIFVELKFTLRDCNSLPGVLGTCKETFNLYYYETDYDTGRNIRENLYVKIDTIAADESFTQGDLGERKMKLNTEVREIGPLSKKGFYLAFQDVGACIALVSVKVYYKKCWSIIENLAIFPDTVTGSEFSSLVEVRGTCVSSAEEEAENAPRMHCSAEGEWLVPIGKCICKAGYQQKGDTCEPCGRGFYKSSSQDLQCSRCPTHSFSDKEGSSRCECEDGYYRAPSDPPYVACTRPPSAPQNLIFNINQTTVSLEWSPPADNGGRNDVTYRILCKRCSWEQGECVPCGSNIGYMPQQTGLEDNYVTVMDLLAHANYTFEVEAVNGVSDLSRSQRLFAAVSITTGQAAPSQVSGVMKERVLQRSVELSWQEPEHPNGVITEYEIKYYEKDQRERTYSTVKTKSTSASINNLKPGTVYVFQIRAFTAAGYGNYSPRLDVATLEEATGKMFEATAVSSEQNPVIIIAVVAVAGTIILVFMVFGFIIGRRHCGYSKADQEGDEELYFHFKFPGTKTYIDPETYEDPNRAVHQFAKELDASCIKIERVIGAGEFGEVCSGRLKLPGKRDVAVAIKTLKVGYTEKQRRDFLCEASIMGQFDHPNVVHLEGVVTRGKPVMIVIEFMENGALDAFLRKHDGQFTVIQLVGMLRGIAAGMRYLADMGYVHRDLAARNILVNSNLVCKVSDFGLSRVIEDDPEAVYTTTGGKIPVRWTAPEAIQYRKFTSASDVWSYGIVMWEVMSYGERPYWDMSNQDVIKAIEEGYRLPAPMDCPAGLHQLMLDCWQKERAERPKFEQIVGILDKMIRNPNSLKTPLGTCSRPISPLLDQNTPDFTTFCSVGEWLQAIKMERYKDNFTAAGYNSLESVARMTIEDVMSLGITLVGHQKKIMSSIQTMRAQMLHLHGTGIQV
Sequence of CLK2 (human) (P49760 whole entry, looked up): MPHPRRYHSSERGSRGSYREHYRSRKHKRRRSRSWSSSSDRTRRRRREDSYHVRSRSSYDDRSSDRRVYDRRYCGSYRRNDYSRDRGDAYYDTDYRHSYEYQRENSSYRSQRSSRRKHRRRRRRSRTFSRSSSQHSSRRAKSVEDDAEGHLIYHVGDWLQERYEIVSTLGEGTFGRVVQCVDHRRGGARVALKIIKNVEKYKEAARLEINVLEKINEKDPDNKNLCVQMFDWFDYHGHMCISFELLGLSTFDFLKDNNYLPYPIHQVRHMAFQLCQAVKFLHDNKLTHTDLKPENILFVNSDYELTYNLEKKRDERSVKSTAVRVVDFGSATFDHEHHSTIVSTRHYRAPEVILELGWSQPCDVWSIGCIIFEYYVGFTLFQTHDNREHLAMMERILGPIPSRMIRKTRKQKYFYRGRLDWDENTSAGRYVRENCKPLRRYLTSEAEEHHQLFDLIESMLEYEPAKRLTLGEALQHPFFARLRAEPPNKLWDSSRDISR

Compound `COC(=O)Nc1ccc(-c2nc(N3CCOCC3)c3cnn(C4CCN(C(=O)OC)CC4)c3n2)cc1` has a kinase still bound, per cent of control (ALK (human)) of 100%, a kinase still bound, per cent of control (BMPR1A (human)) of 100% and a kinase still bound, per cent of control (CAMK4 (human)) of 100%. For the same compound, the kinase still bound, per cent of control (CDC42BPA (human)) was 100%, the kinase still bound, per cent of control (CDC42BPG (human)) was 100% and the per cent of control (CDK11B (human)) was 100%. For the same compound, the per cent of control (CDK14 (human)) was 100%, the per cent of control (CDK15 (human)) was 100% and the per cent of control (CDK19 (human)) was 98%. It also gave a kinase still bound, per cent of control (CIT (human)) of 98%, a kinase still bound, per cent of control (CLK2 (human)) of 57% and a kinase still bound, per cent of control (CSNK1G1 (human)) of 100%. It also gave a kinase still bound, per cent of control (CSNK1G2 (human)) of 98%, a kinase still bound, per cent of control (EGFR (human)) of 100% and a kinase still bound, per cent of control (EPHA1 (human)) of 100%. It also gave a kinase still bound, per cent of control (EPHA7 (human)) of 94%, a kinase still bound, per cent of control (EPHB1 (human)) of 100% and a kinase still bound, per cent of control (EPHB4 (human)) of 94%. The kinase still bound, per cent of control (FGFR2 (human)) was 100%, the kinase still bound, per cent of control [1] was 100% and the kinase still bound, per cent of control (FRK (human)) was 99%. It also gave a kinase still bound, per cent of control (HIPK4 (human)) of 97%, a kinase still bound, per cent of control (KDR (human)) of 100% and a kinase still bound, per cent of control [2] of 80%. For the same compound, the kinase still bound, per cent of control (LYN (human)) was 92%, the kinase still bound, per cent of control (MAK (human)) was 100% and the kinase still bound, per cent of control (MAP2K7 (human)) was 100%. The kinase still bound, per cent of control (MAP3K15 (human)) was 96%, the kinase still bound, per cent of control (MAP4K2 (human)) was 100% and the kinase still bound, per cent of control (MAPK7 (human)) was 100%. For the same compound, the kinase still bound, per cent of control (MARK3 (human)) was 100%, the kinase still bound, per cent of control (NEK11 (human)) was 85% and the kinase still bound, per cent of control (NUAK1 (human)) was 72%. It also gave a kinase still bound, per cent of control (OXSR1 (human)) of 90%, a kinase still bound, per cent of control (PKMYT1 (human)) of 100% and a kinase still bound, per cent of control (PRKX (human)) of 100%. The kinase still bound, per cent of control (STK33 (human)) was 84%, the kinase still bound, per cent of control (STK35 (human)) was 91% and the kinase still bound, per cent of control (TAOK1 (human)) was 83%. It also gave a kinase still bound, per cent of control (TEK (human)) of 100% and a kinase still bound, per cent of control (ULK1 (human)) of 84%.
For `CC(C)n1nc(-c2cc3cc(O)ccc3[nH]2)c2c(N)ncnc21`, the kinase still bound, per cent of control (ALK (human)) was 41%, the kinase still bound, per cent of control (BMPR1A (human)) was 2.8% and the kinase still bound, per cent of control (CAMK4 (human)) was 100%. For the same compound, the kinase still bound, per cent of control (CDC42BPA (human)) was 74%, the kinase still bound, per cent of control (CDC42BPG (human)) was 86% and the per cent of control (CDK11B (human)) was 100%. For the same compound, the per cent of control (CDK14 (human)) was 100%, the per cent of control (CDK15 (human)) was 96% and the per cent of control (CDK19 (human)) was 24%. It also gave a kinase still bound, per cent of control (CIT (human)) of 66%, a kinase still bound, per cent of control (CLK2 (human)) of 9.7% and a kinase still bound, per cent of control (EPHA1 (human)) of 2.7%. The kinase still bound, per cent of control (EPHA7 (human)) was 61%, the kinase still bound, per cent of control (EPHB1 (human)) was 49% and the kinase still bound, per cent of control (FGFR2 (human)) was 5.8%. It also gave a kinase still bound, per cent of control [1] of 11%, a kinase still bound, per cent of control (FRK (human)) of 12% and a kinase still bound, per cent of control (HIPK4 (human)) of 27%. It also gave a kinase still bound, per cent of control [2] of 2.6%, a kinase still bound, per cent of control (LYN (human)) of 12% and a kinase still bound, per cent of control (MAK (human)) of 99%. It also gave a kinase still bound, per cent of control (MAP2K7 (human)) of 75%, a kinase still bound, per cent of control (MAP3K15 (human)) of 76% and a kinase still bound, per cent of control (MAP4K2 (human)) of 0%. For the same compound, the kinase still bound, per cent of control (MAPK7 (human)) was 100%, the kinase still bound, per cent of control (MARK3 (human)) was 100% and the kinase still bound, per cent of control (NEK11 (human)) was 74%. The kinase still bound, per cent of control (NUAK1 (human)) was 86%, the kinase still bound, per cent of control (OXSR1 (human)) was 80% and the kinase still bound, per cent of control (PKMYT1 (human)) was 37%. It also gave a kinase still bound, per cent of control (PRKX (human)) of 100%, a kinase still bound, per cent of control (STK33 (human)) of 45% and a kinase still bound, per cent of control (TAOK1 (human)) of 0.2%. It also gave a kinase still bound, per cent of control (TEK (human)) of 21% and a kinase still bound, per cent of control (ULK1 (human)) of 86%.
Compound `COc1ccc(-c2ccc3c(N4CCOCC4)nc(N4C[C@@H](C)O[C@@H](C)C4)nc3n2)cc1CO` has a kinase still bound, per cent of control (ALK (human)) of 100%, a kinase still bound, per cent of control (BMPR1A (human)) of 70% and a kinase still bound, per cent of control (CAMK4 (human)) of 100%. It also gave a kinase still bound, per cent of control (CDC42BPA (human)) of 92%, a kinase still bound, per cent of control (CDC42BPG (human)) of 65% and a per cent of control (CDK11B (human)) of 100%. For the same compound, the per cent of control (CDK14 (human)) was 100%, the per cent of control (CDK15 (human)) was 95% and the per cent of control (CDK19 (human)) was 73%. The kinase still bound, per cent of control (CIT (human)) was 96%, the kinase still bound, per cent of control (CLK2 (human)) was 64% and the kinase still bound, per cent of control (CSNK1G1 (human)) was 94%. It also gave a kinase still bound, per cent of control (CSNK1G2 (human)) of 100%, a kinase still bound, per cent of control (EGFR (human)) of 100% and a kinase still bound, per cent of control (EPHA1 (human)) of 96%. For the same compound, the kinase still bound, per cent of control (EPHA7 (human)) was 86%, the kinase still bound, per cent of control (EPHB1 (human)) was 100% and the kinase still bound, per cent of control (EPHB4 (human)) was 100%. It also gave a kinase still bound, per cent of control (FGFR2 (human)) of 99%, a kinase still bound, per cent of control [1] of 77% and a kinase still bound, per cent of control (FRK (human)) of 100%. It also gave a kinase still bound, per cent of control (HIPK4 (human)) of 88%, a kinase still bound, per cent of control (KDR (human)) of 98% and a kinase still bound, per cent of control [2] of 100%. For the same compound, the kinase still bound, per cent of control (LYN (human)) was 100%, the kinase still bound, per cent of control (MAK (human)) was 100% and the kinase still bound, per cent of control (MAP2K7 (human)) was 100%. For the same compound, the kinase still bound, per cent of control (MAP3K15 (human)) was 97%, the kinase still bound, per cent of control (MAP4K2 (human)) was 86% and the kinase still bound, per cent of control (MAPK7 (human)) was 100%. The kinase still bound, per cent of control (MARK3 (human)) was 96%, the kinase still bound, per cent of control (NEK11 (human)) was 72% and the kinase still bound, per cent of control (NUAK1 (human)) was 76%. The kinase still bound, per cent of control (OXSR1 (human)) was 72%, the kinase still bound, per cent of control (PKMYT1 (human)) was 84% and the kinase still bound, per cent of control (PRKX (human)) was 100%. It also gave a kinase still bound, per cent of control (STK33 (human)) of 95%, a kinase still bound, per cent of control (STK35 (human)) of 96% and a kinase still bound, per cent of control (TAOK1 (human)) of 83%. The kinase still bound, per cent of control (TEK (human)) was 71% and the kinase still bound, per cent of control (ULK1 (human)) was 79%.
Compound `CCC(=O)N1CCN(c2ccc(-n3c(=O)ccc4cnc5ccc(-c6cnc7ccccc7c6)cc5c43)cc2C(F)(F)F)CC1` has a kinase still bound, per cent of control (ALK (human)) of 80%, a kinase still bound, per cent of control (BMPR1A (human)) of 45% and a kinase still bound, per cent of control (CAMK4 (human)) of 90%. The kinase still bound, per cent of control (CDC42BPA (human)) was 0.65%, the kinase still bound, per cent of control (CDC42BPG (human)) was 1.6% and the per cent of control (CDK11B (human)) was 97%. For the same compound, the per cent of control (CDK14 (human)) was 99%, the per cent of control (CDK15 (human)) was 88% and the per cent of control (CDK19 (human)) was 1.2%. For the same compound, the kinase still bound, per cent of control (CIT (human)) was 59%, the kinase still bound, per cent of control (CLK2 (human)) was 65% and the kinase still bound, per cent of control (CSNK1G1 (human)) was 100%. The kinase still bound, per cent of control (CSNK1G2 (human)) was 100%, the kinase still bound, per cent of control (EGFR (human)) was 85% and the kinase still bound, per cent of control (EPHA1 (human)) was 62%. It also gave a kinase still bound, per cent of control (EPHA7 (human)) of 98%, a kinase still bound, per cent of control (EPHB1 (human)) of 100% and a kinase still bound, per cent of control (EPHB4 (human)) of 85%. The kinase still bound, per cent of control (FGFR2 (human)) was 55%, the kinase still bound, per cent of control (FRK (human)) was 60% and the kinase still bound, per cent of control (HIPK4 (human)) was 4.6%. For the same compound, the kinase still bound, per cent of control (KDR (human)) was 65%, the kinase still bound, per cent of control [2] was 99% and the kinase still bound, per cent of control (LYN (human)) was 79%. The kinase still bound, per cent of control (MAK (human)) was 68%, the kinase still bound, per cent of control (MAP2K7 (human)) was 100% and the kinase still bound, per cent of control (MAP3K15 (human)) was 100%. It also gave a kinase still bound, per cent of control (MAP4K2 (human)) of 35%, a kinase still bound, per cent of control (MAPK7 (human)) of 100% and a kinase still bound, per cent of control (MARK3 (human)) of 100%. For the same compound, the kinase still bound, per cent of control (NEK11 (human)) was 65%, the kinase still bound, per cent of control (NUAK1 (human)) was 100% and the kinase still bound, per cent of control (OXSR1 (human)) was 100%. It also gave a kinase still bound, per cent of control (PKMYT1 (human)) of 52%, a kinase still bound, per cent of control (PRKX (human)) of 83% and a kinase still bound, per cent of control (STK33 (human)) of 90%. It also gave a kinase still bound, per cent of control (STK35 (human)) of 18%, a kinase still bound, per cent of control (TAOK1 (human)) of 58% and a kinase still bound, per cent of control (TEK (human)) of 19%. It also gave a kinase still bound, per cent of control (ULK1 (human)) of 100%.
